Patent US20110263454A1, “Methods of Identifying Functional Characteristics of Promoters, Transcription Modifying Proteins and Transcription Modulating Agents” (Salk Institute for Biological Studies, priority 2008, published 2011)

Key:
[1] = tested on: mDio2 promoter; test: NHR-promoter luciferase screen, mDio2 promoter; format: cell-based, mouse; details: for Luc. act., normalized to lacZ / Normalized Luc. act., normalized to control: Dio2, HR component without or with its ligand; for mDio2 promoter reporter activity: transcription factor +/- ligand, control = 1.00
Protocol: (§1) The use, feasibility, and reproducibility of the functional NHR-promoter screen in a 48-well format have been tested validated. Briefly, there were co-expressed 50 ng of each NHR/NHR homodimer or NHR/RXR heterodimer with 100 ng promoter/luciferase construct and 50 ng of LacZ (as a control for transfection efficiency) in CV-1 cells using Fugene HD (Roche) as a transfection reagent (alternatively or additionally, a CMV-YFP construct can be used as a transfection control). Each of the nuclear hormone receptors that were used in these experiments was cloned into a pcDNA3.1 vector and comprised a C-terminally linked V5H6 tag. Twenty-four hours after transfection, appropriate ligands were added, where applicable, (see Table 5 for various ligands and concentrations and after 48 hrs, samples were assayed for luciferase and LacZ activity. To measure for luciferase activity 15 ul of sample was added to 30 ul of luciferase buffer (20 mM tricine, 1.07 mM MgCarbonate, 2.67 mM MgSulfate, 0.1 mM Naz-EDTA, 5 mM DTT, 5 mM ATP, 0.15 mg/ml CoA, 0.5 mM Luciferin), mixed briefly, and run in a Perkin Elmer Victor 5 luminometer. Thus, the functional NHR-promoter screen was used to observe the transcriptional activity of 29 promoters from various physiological pathways including inflammation, lipid and sugar metabolism, cholesterol transport, xenobiotic metabolism, and circadian rhythm.
(§2) The promoters that facilitate transcription of the indicated gene products that were tested using the protocols described herein are listed in the first row of the table. The nuclear hormone receptors and, where applicable, ligands that were assayed for their transcriptional effects on the promoters are listed in the first column of the table. The data represent the luciferase activity of each sample normalized to both the lacZ activity of that sample and to a control, e.g., no NHR or ligand, as customary in the art. As described previously, these normalizations allow the transcriptional activity of each reporter cell to be compared to other samples.
(§3) Tables 7-40 show the transcriptional effects of the hormone receptors, and, where applicable, ligands (orphan receptors are screened without ligand), on each individual promoter. […] The control data of each table are shown in their last rows.

[2] = tested on: mDio1 promoter; test: NHR-promoter luciferase screen, mDio1 promoter; format: cell-based, mouse; details: for Luc. act., normalized to lacZ / Normalized Luc. act., normalized to control: Dio1, HR component without or with its ligand; for mDio1 promoter reporter activity: transcription factor +/- ligand, control = 1.00
Protocol: as §1, §2, §3

[3] = tested on: mABCA1 promoter; test: NHR-promoter luciferase screen, mABCA1 promoter; format: cell-based, mouse; details: for Luc. act., normalized to lacZ / Normalized Luc. act., normalized to control: ABCA1 promoter, hormone receptor with or without its ligand; for Normalized Luc. act., normalized to control: relative to control; for mABCA1 promoter reporter activity: transcription factor +/- ligand, control = 1.00
Protocol: as §1, §2, §3

[4] = tested on: mPgc1b promoter; test: NHR-promoter luciferase screen, mPgc1b promoter; format: cell-based, mouse; details: for Luc. act., normalized to lacZ / Normalized Luc. act., normalized to control: PGC1b promoter reporter, co-transfected HR, without or with its ligand; for Normalized Luc. act., normalized to control: relative to control; for luciferase activity normalized to lacZ activity and to a control, mPgc1b: mPgc1b promoter-luciferase, CV-1 cells, NHR +/- ligand, control = 1.00
Protocol: (§4) Briefly, there were co-expressed 50 ng of each NHR/NHR homodimer or NHR/RXR heterodimer with 100 ng promoter/luciferase construct and 50 ng of LacZ (as a control for transfection efficiency) in CV-1 cells using Fugene HD (Roche) as a transfection reagent (alternatively or additionally, a CMV-YFP construct can be used as a transfection control). Each of the nuclear hormone receptors that were used in these experiments was cloned into a pcDNA3.1 vector and comprised a C-terminally linked V5H6 tag.
as §2, §3

[5] = tested on: hCYP3A4 promoter; test: NHR-promoter luciferase screen, hCYP3A4 promoter; format: cell-based, human; details: for Luc. act., normalized to lacZ / Normalized Luc. act., normalized to control: CYP3A4 promoter, HR/ligand component; for hCYP3A4 promoter reporter activity: transcription factor +/- ligand, control = 1.00
Protocol: as §4, §2, §3

[6] = tested on: MCP-1 promoter; test: NHR-promoter luciferase screen, MCP-1 promoter; format: cell-based; details: for Normalized Luc. act., normalized to control / Luc. act., normalized to lacZ: MCP-1 promoter reporter; for Normalized Luc. act., normalized to control: HR without or with its ligand, relative to control; for Luc. act., normalized to lacZ: hormone receptor (HR) without or with its ligand; for mMCP-1 promoter reporter activity: transcription factor +/- ligand, control = 1.00
Protocol: as §1, §2, §3

Row | Substance | Luc. act., normalized to lacZ [1] | Normalized Luc. act., normalized to control [1] | mDio2 promoter reporter activity [1] | Luc. act., normalized to lacZ [2] | Normalized Luc. act., normalized to control [2] | mDio1 promoter reporter activity [2] | Luc. act., normalized to lacZ [3] | Normalized Luc. act., normalized to control [3] | mABCA1 promoter reporter activity [3] | Luc. act., normalized to lacZ [4] | Normalized Luc. act., normalized to control [4] | luciferase activity normalized to lacZ activity and to a control, mPgc1b [4] | Luc. act., normalized to lacZ [5] | Normalized Luc. act., normalized to control [5] | hCYP3A4 promoter reporter activity [5] | Normalized Luc. act., normalized to control [6] | Luc. act., normalized to lacZ [6] | mMCP-1 promoter reporter activity [6]
1 | AR: Androsterone Receptor (NR3C4), cDNA driver | 19.7 | 1.3 | 1.26 | 6.4 | 1.4 | 1.43 | 8.3 | 1.5 | 1.48 | 9.0 | 0.8 | 0.76 | 3.9 | 0.9 | 0.88 | 0.6 | 62.4 | 0.58
2 | ERR1: Estrogen Related Receptor α (NR3B1, ERRa), cDNA driver | 34.6 | 2.2 | 2.20 | 6.2 | 1.4 | 1.39 | 8.2 | 1.5 | 1.47 | 8.8 | 0.7 | 0.75 | 4.5 | 1.0 | 1.01 | 2.2 | 237.3 | 2.22
3 | GR: Glucocorticoid Receptor (NR3C1), cDNA driver | 13.2 | 0.8 | 0.84 | 2.5 | 0.6 | 0.55 | 8.5 | 1.5 | 1.52 | 3.2 | 0.3 | 0.27 | 2.0 | 0.5 | 0.45 | 0.2 | 23.9 | 0.22
4 | LXRa: Liver X Receptor α (NR1H3), cDNA driver | 19.0 | 1.2 | 1.21 | 4.7 | 1.1 | 1.06 | 93.0 | 16.6 | 16.56 | 8.40 | 0.7 | 0.71 | 4.1 | 0.9 | 0.93 | 0.9 | 97.3 | 0.91
5 | NR4a1: NR4a1 (NR4A1; NUR77), nuclear hormone receptor cDNA driver | 21.8 | 1.4 | 1.39 | 10.9 | 2.4 | 2.45 | 11.4 | 2.0 | 2.04 | 17.1 | 1.4 | 1.45 | 6.2 | 1.4 | 1.40 | 0.7 | 76.3 | 0.71
6 | PNR: Photoreceptor-specific Nuclear Receptor (NR2E3), cDNA driver | 14.0 | 0.9 | 0.89 | 6.4 | 1.4 | 1.44 | 9.9 | 1.8 | 1.76 | 4.9 | 0.4 | 0.42 | 2.2 | 0.5 | 0.50 | 1.1 | 116.3 | 1.09
